Results taken from patent US20230049549A1, “PEPTIDE COMPOUNDS AND METHODS OF TREATING DISEASES USING SAME” (Immunity Pharma Ltd., priority 2020, published 2023).
Where no end group is shown, it is not given here. [ ]: non-standard residue; d: D form. dimethylproline = dimethylproline (dMP); Aib = CC(C)(N)C(=O)O

Test system: BALB/c mice
Test: Rescue from dexamethasone-induced spleen and thymus weight and cell loss in mice
Format: in vivo, mouse
Conditions: for Average: average of spleen weight, spleen cell number, thymus weight, thymus cell number, Normal = 100%, DEXA alone 47%; for Thymus Cell number: relative to Normal mice = 100% (DEXA alone 23%); for Thymus Cell number / Thymus Weight / Spleen Cell number / Spleen Weight: dexamethasone 100 μg IP, peptide 200 μg/mouse IV immediately and 24 hours after, sacrificed 48 hours; for Thymus Weight: relative to Normal mice = 100% (DEXA alone 44%); for Spleen Cell number: relative to Normal mice = 100% (DEXA alone 59%); for Spleen Weight: relative to Normal mice = 100% (DEXA alone 62%)
Procedure: Dexamethasone is a corticosteroid medication that induces apoptosis of immune cells and lymphomyeloid tissues. BALB/c mice were used to examine the ability of candidate peptides to rescue lymphocyte cells from apoptosis. Mice were injected IP with 100 μg of Dexamethasone. Dexamethasone-treated mice received immediately following and 24-hours after dexamethasone treatment IV injection of candidate peptides (200 μg peptide/mouse). Mice were sacrificed 48 hours after the first treatment. The spleen and the thymus were weighted and full cell count of both organs was performed.
Peptides used in the screen were SEQ ID NOs: 1-13. The peptide of SEQ ID NO: 42 was used as a positive control. The peptides set forth in SEQ ID NOs: 35-41 were used as negative controls.

Substance | Average | Thymus Cell number | Thymus Weight | Spleen Cell number | Spleen Weight
10 (LPPHPYP) [compound 10] | 65% | 33% | 56% | 85% | 84%
41 ([dL]PPLAY[Aib]) [compound 41] | 51% | 25% | 49% | 61% | 69%
6 (LPP[dL]PYP) [compound 6] | 58% | 23% | 48% | 80% | 80%
11 ([dL]PPHPYP) [compound 11] | 68% | 49% | 52% | 91% | 81%
5 ([dL]PPH[Aib]Y-NH2; N-terminus assumed; SMILES CC(C)C[C@@H](N)C(=O)N1CCC[C@H]1C(=O)N1CCC[C@H]1C(=O)N[C@@H](Cc1c[nH]cn1)C(=O)NC(C)(C)C(=O)N[C@@H](Cc1ccc(O)cc1)C(N)=O) [compound 5] | 68% | 49% | 52% | 91% | 81%
2 (LPPLPY[Aib]) [compound 2] | 65% | 25% | 61% | 85% | 89%
38 ([dL]PPL[Aib]YP) [compound 38] | 52% | 24% | 50% | 66% | 67%
35 (LPPH[Aib]YP) [compound 35] | 52% | 39% | 42% | 65% | 62%
37 (Ac-PPL[Aib]Y-NH2; SMILES CC(=O)N1CCC[C@H]1C(=O)N1CCC[C@H]1C(=O)N[C@@H](CC(C)C)C(=O)NC(C)(C)C(=O)N[C@@H](Cc1ccc(O)cc1)C(N)=O) [compound 37] | 55% | 24% | 48% | 77% | 69%
42 (LPPLPYP) [compound 42] | 59% | 34% | 47% | 78% | 79%
40 ([dL]PPLAY) [compound 40] | 55% | 34% | 41% | 72% | 72%
8 (LPPVPYP) [compound 8] | 60% | 30% | 53% | 82% | 76%
9 (LPPSPYP) [compound 9] | 61% | 31% | 55% | 82% | 76%
39 ([dL]PPL[Aib]Y) [compound 39] | 55% | 27% | 50% | 73% | 69%
36 ([dL]PPH[Aib]YP) [compound 36] | 54% | 40% | 43% | 69% | 64%
7 (L[dimethylproline]PLPYP) [compound 7] | 67% | 29% | 72% | 82% | 84%
12 ([dL]P[Aib]LAYP) [compound 12] | 72% | 51% | 63% | 85% | 89%
4 ([dP]PL[Aib]Y-NH2; N-terminus assumed; SMILES CC(C)C[C@H](NC(=O)[C@@H]1CCCN1C(=O)[C@H]1CCCN1)C(=O)NC(C)(C)C(=O)N[C@@H](Cc1ccc(O)cc1)C(N)=O) [compound 4] | 61% | 31% | 55% | 82% | 77%
13 (LP[dimethylproline]LPYP) [compound 13] | 65% | 44% | 49% | 84% | 82%
1 (LPPL[Aib]YP) [compound 1] | 65% | 28% | 59% | 82% | 89%
